Columns and labels:
[1] = Aeration of suspension mixes, height of the foam in the mixing vessel; format: physicochemical; conditions: for Foam Height: 0% mix: 5 mm
Description: (§1) The effectiveness of chemical compounds comprising terpene and/or terpinol at minimizing aeration can be determined in part by measuring the particle size of the hydrophobic coated Ibuprofen in pharmaceutical suspension over time. If the chemical compound is effective, the aeration of the suspension will be adequately low and the particle size of the hydrophobic coated Ibuprofen will remain constant or decrease very little over time. If ineffective, the aeration of the suspension will be higher than desired and the particle size of the hydrophobic coated Ibuprofen can decrease more substantially over time. The extent of aeration of the suspension is assessed by measurement of height of the foam in the mixing vessel. The particle size of the functionally-coated particles can be measured using laser diffraction, a particle analyzer such as a Malvern Mastersizer, or any other suitable means for analyzing fine particles. Example 7: A series of suspension mixes were manufactured by mixing the coated Ibuprofen in the matrix solution/suspension containing various levels of limonene, orange flavor, and strawberry flavor. The height of the foam from these suspension is summarized in Table 7, 8, and 9 respectively.

[2] = Particle size of hydrophobic coated Ibuprofen in suspension with liquid flavor or limonene; format: physicochemical; conditions: 0.25% w/w versus 0.45% w/w and 0.75% w/w, 24 hours
Description: as §1, with “particles.” for “particles. Example 7: A series of suspension mixes were manufactured by mixing the coated Ibuprofen in the matrix solution/suspension containing various levels of limonene, orange flavor, and strawberry flavor. The height of the foam from these suspension is summarized in Table 7, 8, and 9 respectively.”
Example 8: FIGS. 10, 11, and 12 show the decrease in particle size (d10, d50, and d90, respectively) of hydrophobic coated Ibuprofen in a pharmaceutical suspension comprising various concentrations of liquid orange flavor. A particle size expressed in terms of its d10 means that 10 percent of the particles in a given volume of sample lie below a given particle size. […]

Aeration of the suspension ([1]; 0.25% w/w): sufficiently low amount of aeration | Foam Height ([1]; 0.30% w/w in mix with coated Ibuprofen): 1 mm | Foam Height ([1]; 0.6% w/w in mix with coated Ibuprofen): 1 mm | Foam Height ([1]; […] w/w in mix with coated Ibuprofen): 2 mm | Effect on aeration ([1]; level […] w/w and above): minimize the aeration | Effect on the coating (particle size d10, d50, d90) [2]: much less deleterious effect
SMILES: C=C(C)[C@H]1CC=C(C)CC1 [limonene]
